The source of these data is PubChem BioAssay (NCI).

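Interpolation was linear, between the two tested concentrations surrounding the appropriate level; five concentrations were tested over 48 hours in 96-well plates. Here, GI50 denotes the concentration required for 50% inhibition of growth. At the TGI there is no net growth.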

Holding throughout (assay): NCI tumour cell line growth inhibition, 48 h
Experiment [1] has as its system A549 NSCLC.
The subject of experiment [2] is BT-549 breast.
Experiment [3] deals with COLO 205 colon.
The subject of experiment [4] is DU-145 prostate.
The subject of experiment [5] is HL-60(TB) leukemia.
Experiment [6] deals with HT29 colon.
Experiment [7] relates to MDA-MB-231 breast.
Experiment [8] has as its system NCI/ADR-RES ovarian.
In experiment [9] the test system is SF-268 CNS.
The test system of experiment [10] is SR leukemia.

For the compound `FC(F)(F)c1ccc(-c2cnc(-c3ncon3)nc2NC2CCCCCC2)cc1`, the GI50 in [1] is 38 µM; in experiment [2], 38.5 µM; in experiment [3] it was 27.7 µM; in [4], 63.3 µM; in experiment [5], 22.3 µM; in experiment [6] it was 34.7 µM. Moreover, the GI50 was 22.5 µM in [7], 35.3 µM in experiment [8], 64 µM in experiment [9] and 20.4 µM in experiment [10]. Also, the TGI is over 100 µM in experiment [1]; over 100 µM in [2]; 84.8 µM in experiment [3]; over 100 µM in experiment [4]; 48 µM in experiment [5]; over 100 µM in [6]. In addition, the TGI is 89 µM in [7], over 100 µM in experiment [8], over 100 µM in experiment [9] and 56.8 µM in [10].
Consider `N#Cc1c(N2CCOCC2)nc(=S)[nH]c1-c1ccco1`, for which the GI50 in [1] was 14.9 µM; in experiment [2], 3.15 µM; in [3] it was 5.7 µM; in [4], 10.2 µM; in experiment [5], 4.26 µM; in experiment [6], 9.56 µM. The GI50 is 4.63 µM in experiment [7], 15.6 µM in experiment [8], 10.9 µM in [9] and 2.8 µM in [10]. For the same compound, the TGI is over 100 µM in experiment [1]; 18.1 µM in [2]; 70.3 µM in experiment [3]; over 100 µM in [4]; over 100 µM in [5]; over 100 µM in [6]. Further, the TGI is over 100 µM in experiment [7], over 100 µM in [8], over 100 µM in experiment [9] and 51.7 µM in experiment [10].
`CCCN(CCS(C)(=O)=O)Cc1ccc(-c2ccc3ncnc(Nc4ccc(OCc5cccc(F)c5)c(Cl)c4)c3c2)o1`: the GI50 was over 25 µM in [1]; over 25 µM in [2]; over 25 µM in experiment [3]; over 22.4 µM in experiment [4]; 8.14 µM in [5]; over 25 µM in [6]. Moreover, the GI50 in experiment [7] was over 25 µM; in experiment [8], 12 µM; in experiment [9] it was over 25 µM; in [10] it was over 20.9 µM. For the same compound, the TGI in [1], in experiment [2], in experiment [3], in experiment [4], in [5] and in [6] was over 25 µM throughout. The TGI in experiment [7], in experiment [8], in [9] and in [10] was over 25 µM throughout.
For the compound `O=C(OCc1ccc2ccccc2n1)c1cn(C2CC2)c2cc(N3CCN(Cc4ccc5ccccc5n4)CC3)c(F)cc2c1=O`, the GI50 is 98.2 µM in [1]; 23.1 µM in experiment [2]; 49.6 µM in [3]; 6.09 µM in experiment [4]; over 100 µM in experiment [5]; 58.2 µM in [6]. Besides, the GI50 in experiment [7] is over 46.9 µM; in experiment [8], 61.5 µM; in experiment [9], over 62.5 µM; in experiment [10], over 100 µM. Besides, the TGI in [1] was over 100 µM; in experiment [2], 68 µM; in experiment [3] it was over 100 µM; in [4] it was over 100 µM; in experiment [5], over 100 µM; in experiment [6], over 100 µM. Moreover, the TGI in [7] was over 84 µM; in experiment [8] it was over 100 µM; in experiment [9], over 100 µM; in [10], over 100 µM.
Take `COc1ccc2c(c1)N(CCO)C1=C(C(=O)OC1)C2c1cccc(F)c1` (centres undefined): the GI50 in [1] is 0.746 µM; in experiment [2] it was 0.761 µM; in experiment [3], 0.526 µM; in experiment [4], 1.24 µM; in [5], 0.161 µM; in experiment [6], 0.23 µM. In addition, the GI50 was 1.1 µM in experiment [7], 0.297 µM in experiment [8], 0.764 µM in [9] and 0.195 µM in [10]. The TGI in [1] was over 50 µM; in [2] it was over 14.4 µM; in experiment [3] it was 3.25 µM; in experiment [4] it was over 38.6 µM; in experiment [5], 0.781 µM; in experiment [6], over 19.8 µM. Also, the TGI in [7] was over 19.3 µM; in [8] it was over 21.4 µM; in experiment [9], over 50 µM; in experiment [10], over 50 µM.
On to `O=C(O)c1ccc(C(=O)c2ccccc2)c(C(=O)O)c1`, for which the TGI in experiment [1], in experiment [2], in experiment [3], in experiment [4], in [5] and in experiment [6] was over 100 µM throughout. Besides, the TGI in experiment [7], in experiment [8], in experiment [9] and in [10] was over 100 µM throughout.
As for `CO/N=C(\COc1ccc2c(c1)[nH]c1ccccc12)c1ccc(F)cc1`, the GI50 in [1] was 29.6 µM; in experiment [2] it was over 100 µM; in [3], over 100 µM; in experiment [4], over 100 µM; in experiment [6] it was over 100 µM; in [7], 20.1 µM. For the same compound, the GI50 in experiment [8] is 51.8 µM; in [9], over 100 µM. The TGI in [1], in experiment [2], in experiment [3], in experiment [4], in [6] and in [7] was over 100 µM in each case. The TGI in experiment [8] and in experiment [9] was over 100 µM throughout.
For the compound `N#CC1(C(N)=O)C(c2ccc(Cl)cc2)CC(=O)CC1c1ccc(Cl)cc1` (centres undefined), the GI50 in experiment [1] is 18.1 µM; in experiment [2] it was 14.6 µM; in experiment [3], 15.6 µM; in experiment [4], 15.6 µM; in [5], 20.2 µM; in experiment [6], 15.5 µM. Also, the GI50 in experiment [7] was 13.8 µM; in [8], 39.7 µM; in experiment [9], 18.5 µM. Further, the TGI in experiment [1] amounted to 39.8 µM; in experiment [2], 27.7 µM; in [3], 30.4 µM; in [4] it was 29 µM; in experiment [5], 51.6 µM; in experiment [6] it was 29.5 µM. The TGI is 28.9 µM in experiment [7], over 100 µM in experiment [8] and 34.3 µM in [9].
